Test [1] concerns oxazolone-induced atopic dermatitis animal model. Put plainly: Oxazolone-induced atopic dermatitis animal model, skin thickness. Format: in vivo, hairless mice. To be noted: FIG. 7(A) and (B). How it is done: (§1) In order to evaluate efficacy of the novel compound according to the present invention in an animal model, first, hairless mice were treated with oxazolone (Sigma), thereby establishing atopic dermatitis-like animal models. More specifically, on day 1, the mice were sensitized with 1% oxazolone in acetone on the back, and after 1 week, the mice were treated with 0.1% oxazolone in acetone on the back every other day for 2 weeks, thereby inducing atopic dermatitis-like symptoms. Thereafter, the compound (1%) according to the present invention was dissolved in a solution in which polyethylene glycol (PEG, Sigma) and ethanol were mixed with each other at a ratio of 7:3, and the mice were treated with the obtained compound solution on the back once in the morning and evening for 10 days. […] In addition, a skin thickness of each of the animal models was measured and illustrated by a graph. […] Therefore, the compound according to the present invention may be effective to treat atopic dermatitis.

Test [2] relates to RBL-2H3 cells (rat basophilic leukemia cells). Kind of test: Degranulation of mast cells activated by IgE antibody and antigen. The test is classed as cell-based. To be noted: FIG. 3(A) and (B). How it is done:
In order to confirm whether or not the ceramide derivative compound according to the present invention suppresses activities of the mast cells, RBL-2H3 cells (rat basophilic leukemia cells) corresponding to one kind of mast cells were cultured in a DMEM medium containing 10% FBS in a 24-well plate, and then treated with the compound for 16 hours. In order to induce degranulation of the mast cells, the cells were treated with IgE antibody (0.2 μg/ml) and NP-BSA (0.1 μg/ml) for 1 hour, and then, concentrations of β-hexosaminidase and histamine released to the medium were measured. In detail, at the time of measuring the concentration of β-hexosaminidase, 50 μl of the medium was reacted together with 50 μl of p-nitrophenyl-nacetyl-β-d-glucosaminidine, (p-NAG, Sigma) at 37° C. for 2 hours, and then, the reaction was terminated by adding 200 μl of 0.2 M glycine (pH 10.6, Sigma). Absorbance at a wavelength of 405 nm was measured using a spectrometer. The concentration of histamine was measured using a HTRF histamine assay kit (Cisbio). […] Thereafter, fluorescence was measured at 665 nm and 620 nm and compensated by a ratio of 665 nm/620 nm, and then, the concentration of histamine in the cells was measured using a standard curve.

For test [3], the system named is oxazolone-induced atopic dermatitis animal model. Kind of test: Mast cells in skin of atopic dermatitis animal model (toluidine blue staining). Format: in vivo, hairless mice. The settings on record: FIG. 9. How it is done: In order to evaluate whether or not the novel compound according to the present invention suppresses the activities of mast cells in an atopic dermatitis animal model, first, hairless mice were treated with oxazolone (Sigma), thereby establishing an atopic dermatitis animal model. More specifically, on day 1, mice were sensitized with 1% oxazolone in acetone on the back, and after 1 week, the mice were treated with 0.1% oxazolone in acetone on the back every other day for 2 weeks, thereby inducing atopic dermatitis on the back skin of the mice. Thereafter, the compound (1%) according to the present invention was dissolved in a solution in which polyethylene glycol (PEG, Sigma) and ethanol were mixed with each other at a ratio of 7:3, and the mice were treated with the obtained compound solution on the back once in the morning and evening for 10 days. Then, skin biopsy was taken and stained with toluidine blue solution (Sigma), thereby confirming presence of mast cells. […] The mast cells in the skin as described above release various kinds of inflammatory cytokines, thereby aggregating atopic dermatitis. […] The number of mast cells present on the skin in each of the groups was statistically analyzed and illustrated by a graph. […]

The target in test [4] is T1, cannabinoid receptor 1 (CB1R) (Homo sapiens, UniProt P21554).
T1 construct: host or cells: CHO cells over-expressing CB1R
Kind of test: cAMP production suppression in CHO cells over-expressing CB1R (HTRF cAMP assay, forskolin-induced). Format: cell-based. To be noted: for concentration of cAMP: 0-50 μM compound, 10 μM forskolin, FIG. 1; for Modulation: Target CB1R. The source says: cAMP production suppression efficacy by agonistic action of the synthesized materials was confirmed using CHO cells in which cannabinoid receptor 1 (CB1R) was over-expressed.
The CHO cells in which the cannabinoid receptor 1 (CB1R) was over-expressed were purchased from Chantest, and cultured in an F-12 medium (Gibco) containing 10% fetal bovine serum (FBS, Gibco). In order to conform an agonistic activity of a ceramide derivative compounds according to the present invention on the cannabinoid receptor, the cells were plated in a 96-well dish, cultured for 24 hours, and then, treated at concentrations of 0, 0.781, 1.562, 3.125, 6.25, 12.5, 25, and 50 μM (0.1% DMSO in PBS). The cells were treated with 10 μM Forskolin (Sigma), thereby inducing cAMP production by adenylyl cyclase in the cells. A concentration of cAMP in the cells was measured using a HTRF cAMP assay kit purchased from Cisbio. After dissolving the cells with lysis buffer in the kit according to the manufacturer's manual, anti-cAMP cryptate conjugate and cAMP-d2 in the kit were treated at room temperature for 2 hours. Thereafter, fluorescence was measured at 665 nm and 620 nm and compensated by a ratio of 665 nm/620 nm, and then, the concentration of cAMP in the cells was measured using a standard curve. Since activity of adenylyl cyclase was suppressed when the cannabinoid receptor 1 (CB1R) was activated, the cannabinoid receptor agonist according to the present invention suppresses production of cAMP in the cells. […] As illustrated in the following Table 1, it may be confirmed that the novel cannabinoid receptor agonists according to the present invention activate the cannabinoid receptor 1 (CB1R) when EC50 was 24 to 26 μM.

The test system of test [5] is oxazolone-induced atopic dermatitis animal model. Kind of test: IgE and histamine in blood in atopic dermatitis animal model. The test is classed as in vivo, hairless mice. The settings on record: for concentration of IgE antibody in the blood: FIG. 8(A); for concentration of histamine in the blood: FIG. 8(B). How it is done:
as §1
In order to evaluate efficacy of the novel compound according to the present invention in an atopic dermatitis animal model, after treating an oxazolone (Sigma)-induced atopic dermatitis animal model with the compound, concentrations of IgE antibody and histamine present in the blood were measured. The IgE and histamine in the blood are known as markers of atopic dermatitis and inflammatory dermatitis such as contact dermatitis, and as the disease aggregates, the concentrations thereof in the blood further increases. The increased IgE activated mast cells, and allowed the mast cells to release a large amount of inflammatory cytokines such as histamine.

Test [6] relates to RBL-2H3 cells (rat basophilic leukemia cells). Kind of test: Histamine release of mast cells activated by PAR-2 agonist SLIGRL. The settings on record: FIG. 4. The test is classed as cell-based. How it is done:
The PAR-2, which is a receptor activated by protease (tryptase, chymase, and the like) present outside cells, induces degranulation on surfaces of the mast cells. In order to confirm whether or not the ceramide derivative compound according to the present invention suppresses activities of the mast cells by PAR-2, RBL-2H3 cells (rat basophilic leukemia cells) corresponding to one kind of mast cells were cultured in a DMEM medium containing 10% FBS in a 24-well plate, and then treated with the compound for 2 hours. Thereafter, in order to induce degranulation of the mast cells, the cells were treated with 10 μM SLIGRL peptide, which is a PAR-2 agonist, for 1 hour. The concentration of histamine released outside the cells was measured using a HTRF histamine assay kit (Cisbio). 10 μl of a medium supernatant of the cells was treated with anti-histamine cryptate conjugate and histamine-d2 according to the manufacturer's manual at room temperature for 2 hours. Thereafter, fluorescence was measured at 665 nm and 620 nm and compensated by a ratio of 665 nm/620 nm, and then, the concentration of histamine in the cells was measured using a standard curve. […] Therefore, the novel ceramide derivative according to the present invention, which is the novel cannabinoid receptor agonist, is a compound effectively suppressing the activities of the mast cells.

Test [7] has the same test system. Put plainly: Degranulation of mast cells activated by ionomycin. Format: cell-based. To be noted: FIG. 2(A) and (B). How it is done:
In order to confirm whether or not the ceramide derivative compound according to the present invention suppresses activation of the mast cells, RBL-2H3 cells (rat basophilic leukemia cells) corresponding to one kind of mast cells were cultured in a DMEM medium containing 10% FBS in a 24-well plate, and then treated with the compound for 16 hours. In order to induce degranulation of the mast cells, the cells were treated with 2 μM ionomycin (Sigma), and after 30 minutes, concentrations of β-hexosaminidase and histamine released to the medium were measured. In detail, at the time of measuring the concentration of β-hexosaminidase, 50 μl of the medium was reacted together with 50 μl of p-nitrophenyl-nacetyl-β-d-glucosaminidine, (p-NAG, Sigma) at 37° C. for 2 hours, and then, the reaction was terminated by adding 200 μl of 0.2 M glycine (pH 10.6, Sigma). Absorbance at a wavelength of 405 nm was measured using a spectrometer. The concentration of histamine was measured using a HTRF histamine assay kit (Cisbio). 10 μl of a medium supernatant of the cells was treated with anti-histamine cryptate conjugate and histamine-d2 according to the manufacturer's manual at room temperature for 2 hours. Thereafter, fluorescence was measured at 665 nm and 620 nm and compensated by a ratio of 665 nm/620 nm, and then, the concentration of histamine in the cells was measured using a standard curve. […]

T1 sequence (P21554 whole entry): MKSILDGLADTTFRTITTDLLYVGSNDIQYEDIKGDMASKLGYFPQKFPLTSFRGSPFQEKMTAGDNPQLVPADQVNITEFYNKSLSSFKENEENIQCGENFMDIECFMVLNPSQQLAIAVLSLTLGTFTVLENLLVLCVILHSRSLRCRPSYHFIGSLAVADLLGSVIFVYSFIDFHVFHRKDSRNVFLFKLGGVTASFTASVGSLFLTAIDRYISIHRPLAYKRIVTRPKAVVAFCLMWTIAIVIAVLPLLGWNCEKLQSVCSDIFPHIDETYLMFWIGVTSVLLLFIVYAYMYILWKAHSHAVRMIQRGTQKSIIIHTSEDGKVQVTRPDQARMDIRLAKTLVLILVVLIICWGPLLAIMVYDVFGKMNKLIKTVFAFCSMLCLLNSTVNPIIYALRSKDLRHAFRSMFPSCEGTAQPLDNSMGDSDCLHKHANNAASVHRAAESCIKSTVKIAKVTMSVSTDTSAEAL

`CCCCCCCC/C=C\CCCCCCCC(=O)C(CCCCCC/C=C\CCCCCCCC)C(=O)NCCO` (stereo not drawn) [CBS004, (11Z)-2-((Z)-hexadec-7-enyl)-N-(2-hydroxyethyl)-3-oxoicos-11-enamide]: in test [1], the skin damage entry is recorded as “repair effects”. For the same compound, in test [2], the “activation of the mast cells by IgE antibody and antigen” value is on record as “suppression effects”. Also, in test [3], the “invasion of mast cells in a lesion site” value was “suppressed”. Also, in test [4], the “concentration of cAMP” value is on record as “decreased dependently on the concentration of the compound” and the Modulation result is reported as “Agonist”. Besides, in test [5], the “concentration of IgE antibody in the blood” value is listed as “decrease effects” and the “concentration of histamine in the blood” value is recorded as “decrease effects”. The “activation of mast cells by protease activated receptor 2 (PAR-2)” value in test [6] was “suppression effects”. In addition, the “activation of mast cells by ionomycin” value in test [7] is “suppression effects”.

For `CCCCCCCC/C=C\CCCCCCCC(=O)C(CCCCCC/C=C\CCCCCCCC)C(=O)NC(CO)CO` (stereo not drawn) [CBS007, (11Z)-2-((Z)-hexadec-7-enyl)-N-(1,3-dihydroxypropan-2-yl)-3-oxoicos-11-enamide], in test [1], the skin damage result is reported as “repair effects”. Also, the “activation of the mast cells by IgE antibody and antigen” value in test [2] is “suppression effects”. The “invasion of mast cells in a lesion site” value in test [3] is listed as “suppressed”. For the same compound, in test [4], the “concentration of cAMP” value is on record as “decreased dependently on the concentration of the compound” and the Modulation result is “Agonist”. Besides, in test [5], the “concentration of IgE antibody in the blood” value is “decrease effects” and the “concentration of histamine in the blood” value is “decrease effects”. The “activation of mast cells by protease activated receptor 2 (PAR-2)” value in test [6] is “suppression effects”. Moreover, in test [7], the “activation of mast cells by ionomycin” value is given as “suppression effects”.

The values above are taken from patent US9796665B2 (priority 2013, dated 2017).
